Data taken from patent US20240124460A1, “METHODS AND COMPOSITIONS FOR TARGETED PROTEIN DEGRADATION” (Ranok Therapeutics (Hangzhou) Co. Ltd., priority 2020, published 2024).
Where two headings read alike, the source gives them in different places.

How the values were obtained:
[1] = target: T1, HSP90α protein (Homo sapiens, UniProt P07900); experiment: HSP90α-binding FP (FITC) assay; settings: FP competition with FITC-geldanamycin
T1 construct: purchased BPS Bioscience #50298
Method in brief: (§1)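 Fluorescence polarization measured competition with N-terminal human HSP90α, using either FITC-geldanamycin or BODIPY-labelled triazolone RNK04010 as tracer (5 nM final each). Compounds were tested in 2.5-fold dilutions from 20 μM to 5.2 nM, with incubation at 25 °C for 120 min (FITC) or 300 min (BODIPY).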

[2] = system: MDA-MB-231 human breast adenocarcinoma; experiment: MDA-MB-231 CCK-8 proliferation assay; assay type: cell-based; settings: MDA-MB-231 cells, 72 hr
Procedure: (§2) The following cancer cell lines were employed: A549 human lung carcinoma (ATCC, #CCL-185); BT-474 human breast carcinoma (ATCC, #HTB-20); MDA-MB-231 human breast adenocarcinoma (ATCC, #CRM−HTB-26); MDA-MB-468 human breast adenocarcinoma (ATCC, #HTB-132); MV-4-11 human acute myeloid leukemia (ATCC, #CRL-9591); and U-87 MG human glioblastoma (ATCC, #HTB-14). Cell lines were cultured essentially according to ATCC recommendations.
(§3) 3-fold serial dilutions of each test compound were prepared ranging from 20 μM to 1.02 nM.
(§4) % Inhibition=100−(D−B)/(S−B)*100%. • S: Absorbance of cells treated with DMSO • D: Absorbance of compound-treated cells • B: Absorbance of medium with DMSO without cells

[3] = system: MV-4-11 human acute myeloid leukemia; experiment: MV-4-11 CCK-8 proliferation assay; assay type: cell-based; settings: MV-4-11 cells, 72 hr
Method in brief: (§5)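 Inhibition is derived from CCK-8 absorbance of compound-treated cells relative to DMSO-treated cells, after subtracting a cell-free medium/DMSO background. Test concentrations span 20 μM down to 1.02 nM in 3-fold steps, and lines are cultured as ATCC recommends.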

[4] = system: U-87 MG human glioblastoma; experiment: U87 MG CCK-8 proliferation assay; assay type: cell-based; settings: U-87 MG cells, read-out: U87MG CCK-8
Method in brief: as §5

[5] = system: ERBB2; experiment: ERBB2 (HER2) flow cytometry protein degradation assay in BT-474 cells; assay type: cell-based, human; settings: DC50, BT-474 cells, 24 hr
Method in brief: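 BT-474 cells trypsinised after compound treatment and stained with PE-conjugated anti-ERBB2 antibody, 30 min at 25° C in the dark, then fixed in 1% paraformaldehyde for flow cytometry. % inhibition = 100−(D−B)/(S−B)*100, using treated, untreated-stained and unstained cell fluorescence.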

[6] = system: MDA-MB-468 human breast adenocarcinoma; experiment: MDA-MB-468 CCK-8 proliferation assay; assay type: cell-based; settings: MDA-MB-468 cells, 72 hr
Procedure: as §2, §3, §4

[7] = target: T2, MAPK7 (Homo sapiens, UniProt Q13164); experiment: MAPK7 kinase assay (ADP-Glo); assay type: biochemical; design: purchased Carna Biosciences #04-146; settings: ATP 340 μM
Procedure: The inhibition of MAPK7 kinase activity by test compounds was measured by the ADP-Glo Kinase Assay (Promega, #V6930), following the manufacturer's instructions, except as noted. 3-fold serial dilutions of each test compound were prepared ranging from 50 μM to 2.54 nM. Also, as a positive control, a 4-fold serial dilution of the MAPK7 inhibitor, XMD17-109 (MedChemExpress, #HY-15665) was prepared ranging from 10 μM to 0.04 nM. In brief, in 384-well plates, test compounds were added to the kinase reaction mix containing recombinant MAPK7 protein (Carna Biosciences, #04-146; 20 nM final concentration), myelin basic protein (SignalChem Biotech, #M42-54G; 0.1 mg/ml final concentration) and ATP (340 μM final concentration), then mixed by shaking and incubated with ADP-Glo Reagent and Kinase Detection Reagent. Luminescence was measured on a BioTek plate reader.
Lumpositive: The average ratio for 10 wells of positive controls (10 μM XMD17-109) across the plate.
Lumvehicle: The average ratio for 10 wells of negative controls (0.5% DMSO) across the plate.

[8] = target: T2, MAPK7; experiment: MAPK7 Western blot protein degradation assay in U-87 MG cells; assay type: cell-based; design: U-87 MG human glioblastoma cells, which express MAPK7; endogenous in cells; host or cells: U-87 MG; settings: 48 hr
Method in brief: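 U-87 MG glioblastoma cells treated with compounds at various concentrations for 48 h at 37 °C. MAPK7 (ERK5) levels in protein-normalized lysates measured by Western blot with β-actin as loading reference, quantified by fluorescence imaging.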

[9] = target: T1, HSP90α protein; experiment: HSP90α-binding FP (BODIPY) assay; settings: FP competition with BODIPY-labeled RNK04010
Method in brief: as §1

T2 sequence (Q13164 whole entry): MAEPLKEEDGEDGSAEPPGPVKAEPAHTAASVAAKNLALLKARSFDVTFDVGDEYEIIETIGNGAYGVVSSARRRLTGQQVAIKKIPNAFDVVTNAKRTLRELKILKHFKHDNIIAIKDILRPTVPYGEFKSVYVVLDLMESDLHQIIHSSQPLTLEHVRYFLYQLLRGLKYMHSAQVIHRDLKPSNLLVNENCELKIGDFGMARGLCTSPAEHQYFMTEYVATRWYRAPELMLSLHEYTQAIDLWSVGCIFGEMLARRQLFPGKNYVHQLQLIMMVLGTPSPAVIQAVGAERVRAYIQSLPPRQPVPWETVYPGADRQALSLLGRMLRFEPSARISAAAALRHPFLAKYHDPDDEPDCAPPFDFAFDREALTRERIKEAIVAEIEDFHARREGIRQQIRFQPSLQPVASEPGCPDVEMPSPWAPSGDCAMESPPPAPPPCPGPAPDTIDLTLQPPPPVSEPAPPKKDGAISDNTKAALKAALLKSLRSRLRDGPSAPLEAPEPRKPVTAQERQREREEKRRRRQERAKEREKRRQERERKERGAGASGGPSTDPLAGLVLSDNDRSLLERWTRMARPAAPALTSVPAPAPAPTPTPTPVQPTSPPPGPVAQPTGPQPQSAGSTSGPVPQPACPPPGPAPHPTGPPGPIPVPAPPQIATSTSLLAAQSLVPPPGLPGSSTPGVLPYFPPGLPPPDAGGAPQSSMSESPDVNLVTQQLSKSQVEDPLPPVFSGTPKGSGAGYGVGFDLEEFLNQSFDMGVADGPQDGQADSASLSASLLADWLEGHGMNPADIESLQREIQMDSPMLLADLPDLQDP

Row | SMILES | IC50 [1] | EC50 [2] | EC50 ([3]; Homo sapiens, MV4-11) | EC50 ([4]; Homo sapiens, U-87 MG, 72 h) | EC50 [6] | IC50 [7] | MAPK7 degradation (30 nM) ([8]; 30 nM) | MAPK7 degradation (100 nM) ([8]; 100 nM) | MAPK7 degradation (300 nM) ([8]; 300 nM) | MAPK7 degradation (1000 nM) ([8]; 1000 nM) | IC50 [9] | EC50 [3] | EC50 ([4]; 72 hr) | ERBB2 degradation [5]
1 | CCOc1cc(N2CCC(C(=O)NCC3CCN(C(=O)C4CCN(Cc5ccc(-n6c(O)nnc6-c6cc(C(C)C)c(O)cc6O)cc5)CC4)C3)CC2)ccc1Nc1ncc2c(n1)N(C)c1ccccc1C(=O)N2C (centres unmarked) [Compound 010, N-((1-(1-(4-(3-(2,4-dihydroxy-5-isopropylphenyl)-5-hydroxy-4H-1,2,4-triazol-4-yl)benzyl)piperidine-4-carbonyl)pyrrolidin-3-yl)methyl)-1-(4-((5,11-dimethyl-6-oxo-6,11-dihydro-5H-benzo[e]pyrimido[5,4-b][1,4]diazepin-2-yl)amino)-3-ethoxyphenyl)piperidine-4-carboxamide] | 100 to 1000 nM | > 1000 nM | < 100 nM | 100 to 1000 nM | > 1000 nM |  |  |  |  |  |  |  |  | C (DC50 > 1000 nM)
2 | CCOc1cc(N2CCC(C(=O)N3CCN(Cc4ccc(-n5c(O)nnc5-c5cc(CC)c(O)cc5O)cc4)CC3)CC2)ccc1Nc1ncc2c(n1)N(C)c1ccccc1C(=O)N2C [Compound 049, 2-((2-ethoxy-4-(4-(4-(4-(3-(5-ethyl-2,4-dihydroxyphenyl)-5-hydroxy-4H-1,2,4-triazol-4-yl)benzyl)piperazine-1-carbonyl)piperidin-1-yl)phenyl)amino)-5,11-dimethyl-5,11-dihydro-6H-benzo[e]pyrimido[5,4-b][1,4]diazepin-6-one] |  | < 100 nM | < 100 nM | 100 to 1000 nM | < 100 nM |  |  |  |  |  | 100 to 1000 nM |  |  | 
3 | CCOc1cc(N2CCC(C(=O)NCCOCc3ccc(-n4c(O)nnc4-c4cc(C(C)C)c(O)cc4O)cc3)CC2)ccc1Nc1ncc2c(n1)N(C)c1ccccc1C(=O)N2C [Compound 053, N-(2-((4-(3-(2,4-dihydroxy-5-isopropylphenyl)-5-hydroxy-4H-1,2,4-triazol-4-yl)benzyl)oxy)ethyl)-1-(4-((5,11-dimethyl-6-oxo-6,11-dihydro-5H-benzo[e]pyrimido[5,4-b][1,4]diazepin-2-yl)amino)-3-ethoxyphenyl)piperidine-4-carboxamide] |  | 100 to 1000 nM |  |  | < 100 nM |  |  |  |  |  | 100 to 1000 nM | < 100 nM | 100 to 1000 nM | 

Continued, in another order:

Row | IC50 [1] | EC50 [2] | EC50 ([3]; Homo sapiens, MV4-11) | EC50 ([4]; Homo sapiens, U-87 MG, 72 h) | EC50 [6] | IC50 [7] | MAPK7 degradation (30 nM) ([8]; 30 nM) | MAPK7 degradation (100 nM) ([8]; 100 nM) | MAPK7 degradation (300 nM) ([8]; 300 nM) | MAPK7 degradation (1000 nM) ([8]; 1000 nM) | IC50 [9] | EC50 [3] | EC50 ([4]; 72 hr) | SMILES | ERBB2 degradation [5]
4 |  |  | < 100 nM | 100 to 1000 nM |  | > 1000 nM | C (< 33% degradation) | B (33-66% degradation) | A (>66% degradation) | A (>66% degradation) | < 100 nM |  |  | CCOc1cc(N2CCC(C(=O)N3CCC(CN4CCN(Cc5ccc(-n6c(O)nnc6-c6cc(C(C)C)c(O)cc6O)cc5)CC4)CC3)CC2)ccc1Nc1ncc2c(n1)N(C)c1ccccc1C(=O)N2C.Cl [Compound 032, 2-((4-(4-(4-((4-(4-(3-(2,4-dihydroxy-5-isopropylphenyl)-5-hydroxy-4H-1,2,4-triazol-4-yl)benzyl)piperazin-1-yl)methyl)piperidine-1-carbonyl)piperidin-1-yl)-2-ethoxyphenyl)amino)-5,11-dimethyl-5,11-dihydro-6H-benzo[e]pyrimido[5,4-b][1,4]diazepin-6-one] | B (DC50 = 100-1000 nM)
5 | > 1000 nM |  | > 1000 nM | > 1000 nM |  | < 100 nM |  |  |  |  |  |  |  | CCOc1cc(N2CCC(C(=O)N3CCC(CN4CCN(Cc5ccc(-n6c(O)nnc6-c6cc(C(C)C)c(O)cc6OC)cc5)CC4)CC3)CC2)ccc1Nc1ncc2c(n1)N(S(C)(=O)=O)c1ccccc1C(=O)N2C [Compound 128, 2-((2-ethoxy-4-(4-(4-((4-(4-(3-hydroxy-5-(4-hydroxy-5-isopropyl-2-methoxyphenyl)-4H-1,2,4-triazol-4-yl)benzyl)piperazin-1-yl)methyl)piperidine-1-carbonyl)piperidin-1-yl)phenyl)amino)-5-methyl-11-(methylsulfonyl)-5,11-dihydro-6H-benzo[e]pyrimido[5,4-b][1,4]diazepin-6-one] | 
